From US4504469A, “Vasotocin derivatives” (priority 1982, dated 1985) come the findings set out here.

Where a SMILES comes first, the peptide text is derived from it. Bridges are numbered along the chain shown (N, C = ends). [ ]: non-standard residue; d: D form. Mpa = O=C(O)CCS

One test deals with isolated rat uterus. The test is classed as cell-based. The procedure:
The compounds according to the invention were investigated with regard to uterotonic potency on isolated rat uterus, using oxytocin as standard. The antagonistic properties of the compounds were also evaluated with the aid of this preparation. Also in vivo tests using oxytocin as the agonist were carried out, the results being compared with those obtained with Antocin.
Sprague Dawley rats (body weight approximately 250 g) in natural estrous were selected by vaginal smears. An approximately 20 mm long segment was cut from the middle of a uterine horn and mounted in an organ bath containing 10 ml of a modified Locke's solution of the following composition (mM:NaCl 153, KCl 5.63, CaCl2 0.541, NaHCO3 5.95 and glucose 2.78). The solution was gassed with 5% CO2 in oxygen at 30° C. The uterine contractions were allowed to stabilize for 30 min. Contractions were recorded isometrically at a resting tension of 1.5 g using Grass force transducers (Ft. 03). The antagonistic potency of the analogs was calculated as pA2 values (Rudinger, J. & Krejci, I. Experientia 18, (1962), 585-588). pA2 is a measure of the inhibitory effect of the peptide and was defined by Schild (Schild, H. O., British Journal of Pharmacology, 2, (1947), 189-206) as the negative logarithm of the molar concentration of an antagonist which reduces the effect of a dose of agonist to that of half the dose. The agonistic effects, if any, of the antagonists were investigated by adding to the bath containing the uterus preparation a varying amount of peptide corresponding at most to a concentration of 4 μg per ml.

A short description of test [1]: Pressor effect (effect on the blood pressure). On the set-up: reference not given here.
A short description of the next test: Antidiuretic effect (AD). The arrangement: unit not given here.
The test system of a further test is rat uterus in vivo. Description: In vivo inhibition of oxytocin-induced uterus contractions in rats, compared with Antocin. The conditions noted are these: anaesthetized rats, oxytocin infusion i.v., antagonist 0.8-8.0 μg/100 g i.v.; Antocin given the value 1. How it is done:
Sprague Dawley rats (250 g) in natural estrous were anaesthetized with Inactin (0.5 mg/100 g body weight i.p.). Myometrial activity was recorded by means of a catheter fixed in the uterine cavity and filled with modified Locke's solution. The catheter was connected to a Statham P23d transducer, and contractions were recorded on a Grass polygraph (model 7d). Oxytocin was infused intravenously (0.05 μg/min/100 g body weight). When a regular contraction pattern had been obtained, the antagonist (0.8-8.0 μg/100 g body weight) was administered intravenously in a volume of 0.2 ml. The recorded curve was integrated over 15 min intervals immediately before and after injection of the antagonist. The inhibition of the increase in the magnitude of the uterus contractions caused by oxytocin infusion were compared with the inhibition of the Antocin which was given the value 1.

Consider `CC[C@H](C)[C@@H]1NC(=O)[C@@H](Cc2c[nH]c3ccccc23)NC(=O)CCSSC[C@@H](C(=O)N2CCC[C@H]2C(=O)N[C@@H](CCCNC(=N)N)C(=O)NCC(N)=O)NC(=O)[C@H](CC(N)=O)NC(=O)[C@H](C(C)C)NC1=O` [Example 8, 1-β-mercaptopropionic acid-2-D-tryptophane-4-valine-8-arginine vasotocin] ([Mpa][dW]IVNCPRG-NH2; disulfide 1-6), for which the “Uterus in vitro antagonist pA2” value in the test with isolated rat uterus is listed as 8.4. Besides, the “Pressor (effect on the blood pressure)” value in test [1] came out at 0.12. Also, in the test “Antidiuretic effect (AD)”, the “AD (antidiuretic effect)” value is reported as 0.1. In the test on rat uterus in vivo, the “Uterus in vivo, compared with Antocin” value came to 11.
